Drawing on patent US5360909A, “Phenoxyacetic acid compounds and medical preparations containing them” (Terumo Kabushiki Kaisha, priority 1992, dated 1994), this text covers IC50 for eight compounds.

What is called IC50 is the concentration at which inhibition is half-maximal.

In test [1] the test system is thromboxane A2 (TXA2). Put plainly: Antagonistic effect to TXA2: contraction of isolated guinea pig tracheal strips. Conditions: Cavia porcellus, in vitro, TXA2 10^-7 M, Tyrode solution 37° C. It is filed as cell-based, Hartley male guinea pigs. As to the method:
(§1) The in vitro IC50 value of the antagonistic effect of the compounds of the present invention to TXA2 and LTD4 was obtained, using the following test system. Tracheal strips isolated from Hartley male guinea pigs (weight: 300 to 500 g) were suspended under a tension of 0.3 g in a Tyrode solution at 37° C. in an organ bath, to which a mixed gas of oxygen (95%)-carbon dioxide (5%) was introduced. After letting the above stabilize for about one hour, TXA2 (produced by Cayman Co.) or LTD4 (produced by Wako Pure Chemicals CO.) was added to the organ bath in a concentration-of 10^-7 M and 10^-8 M respectively, whereupon the contraction of the sections was measured as a standard. The strips were treated with various amounts of the compounds of Examples 1-8, whereupon the contraction of the tracheal preparations upon dosing with TXA2 or LTDS4 was again measured. From the values thus measured, the IC50 (Inhibition concentration) of the compound added was calculated. The results are shown in Table 1 below; the smaller the amount of the compound, the stronger its effectiveness.

Test [2] deals with leukotriene D4 (LTD4). Put plainly: Antagonistic effect to LTD4: contraction of isolated guinea pig tracheal strips. It is filed as cell-based, Hartley male guinea pigs. Conditions: Cavia porcellus, in vitro, LTD4 10^-8 M, Tyrode solution 37° C. As to the method:
as §1

For `O=C(O)COc1ccc(CCNS(=O)(=O)c2ccc(Cl)cc2)cc1NC(=O)c1cccc(OCc2ccc3ccccc3n2)c1` [Example 1, 4-[2-(4-chlorobenzenesulfonamido)ethyl]-2-[3-(2-quinolinemethoxy)benzoylamino]phenoxyacetic acid], the IC50 was found to be 4.2 nM in test [1] and 65 nM in test [2].
Take `O=C(O)COc1ccc(CCNS(=O)(=O)c2ccccc2)cc1NC(=O)c1cccc(OCc2ccc3ccccc3n2)c1` [Example 2, 4-[2-(benzenesulfonylamino)ethyl]-2-[3-(2-quinolinemethoxy)benzoylamino]phenoxyacetic acid]: the IC50 in test [1] amounted to 3.4 nM; in test [2], 38 nM.
`O=C(O)COc1ccc(CCNS(=O)(=O)c2ccc(Cl)cc2)c(OCc2ccc3ccccc3n2)c1` [Example 3, 4-[2-(4-chlorobenzenesulfonamido)ethyl]-3-(2-quinolinemethoxy)phenoxyacetic acid]: the IC50 turned out to be 3.5 nM in test [1] and 8300 nM in test [2].
On to `O=C(O)COc1ccc(CCNS(=O)(=O)c2ccc(Cl)cc2)c(OCc2cccc(OCc3ccc4ccccc4n3)c2)c1` [Example 4, 4-[2-(4-chlorobenzenesulfonamido)ethyl]-3-(3-(2-quinolinemethoxy)benzyloxy]phenoxyacetic acid], for which the half-inhibitory concentration (IC50) in test [1] was found to be 590 nM; in test [2], 210 nM.
For `O=C(O)COc1ccc(CCNS(=O)(=O)c2ccc(Cl)cc2)cc1NC(=S)Nc1cccc(OCc2ccc3ccccc3n2)c1` [Example 5, 4-[2-(4-chlorobenzenesulfonamido)ethyl]-2-{3-[3-(2-quinolinemethoxy)phenyl]thioureido}phenoxyacetic acid], the IC50 in test [1] is 25 nM; in test [2], 72 nM.
`CCCc1c(OCCCC(=O)Nc2cc(CCNS(=O)(=O)c3ccc(Cl)cc3)ccc2OCC(=O)O)ccc(C(C)=O)c1O` [Example 6, 4-[2-(4-chlorobenzenesulfonamido)ethyl]-2-[(4-acetyl-3-hydroxy-2-propyl)phenoxy-4-butamido]phenoxyacetic acid]: the IC50 worked out at 8.2 nM in test [1] and 160 nM in test [2].
In the case of `CCCc1c(OCCCCC(=O)Nc2cc(CCNS(=O)(=O)c3ccc(Cl)cc3)ccc2OCC(=O)O)ccc(C(C)=O)c1O` [Example 7, 4-[2-(4-chlorobenzenesulfonamido)ethyl]-2-[(4-acetyl-3-hydroxy-2-propyl)phenoxy-5-pentamido]phenoxyacetic acid], the results for the IC50 in test [1] and in test [2] were 19 nM and 76 nM, respectively.
For the compound `CCCc1c(OCCCCCC(=O)Nc2cc(CCNS(=O)(=O)c3ccc(Cl)cc3)ccc2OCC(=O)O)ccc(C(C)=O)c1O` [Example 8, 4-[2-(4-chlorobenzenesulfonamido)ethyl]-2-[(4-acetyl-3-hydroxy-2-propyl)phenoxy-6-hexamido]phenoxyacetic acid], the IC50 turned out to be 40 nM in test [1] and 260 nM in test [2].
